Measurements from US12258337B2, “Bicyclic CX3CR1 receptor agonists” (Board of Regents, The University of Texas System, priority 2019, dated 2025).

How the values were obtained:
Type in all cases: cell-based
hCX3CR1 [1] = molecular target: T1, hCX3CR1 (Homo sapiens, UniProt P49238); assay: ChAMPion assay (CHO ChAMPion/CX3CR1 K1.6, cAMP/CNG channel, photoprotein luminescence); parameters: expressed in transfected cells; stably expresses a Ca2+ sensitive photo-protein; settings: ChAMPion assay, CHO ChAMPion/CX3CR1 K1.6, Forskolin 3 μM; read-out: hCX3CR1 agonism EC50
T1 sequence (P49238 1-355): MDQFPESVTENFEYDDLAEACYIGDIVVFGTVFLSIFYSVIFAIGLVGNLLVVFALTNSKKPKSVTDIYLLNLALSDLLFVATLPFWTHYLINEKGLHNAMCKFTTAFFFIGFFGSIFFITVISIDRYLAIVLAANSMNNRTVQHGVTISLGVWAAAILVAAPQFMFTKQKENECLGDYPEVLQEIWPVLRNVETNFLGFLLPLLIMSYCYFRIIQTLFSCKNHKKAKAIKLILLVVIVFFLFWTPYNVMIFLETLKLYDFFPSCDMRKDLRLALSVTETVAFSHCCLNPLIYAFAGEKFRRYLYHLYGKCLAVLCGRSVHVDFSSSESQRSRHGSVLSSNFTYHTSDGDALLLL
Description: Buffers and reagents. PBS (D-PBS without calcium and magnesium; EuroClone); Trypsin (Trypsin 0.05%, EDTA 0.02% in PBS; EuroClone); DMSO (Sigma); Tyrode buffer Ca^2+ free: in-house solution (130 mM NaCl, 5 mM KCl, 1 mM MgCl^2, 5 mM NaHCO3, 20 mM HEPES (pH 7.4); sterile filtered and autoclaved); Tyrode buffer 10 mM Ca^2+: in-house solution (130 mM NaCl, 5 mM KCl, 10 mM CaCl2), 1 mM MgCl2, 5 mM NaHCO3, 20 mM HEPES, in water at pH 7.4, sterile filtered); Coelenterazine, native (Biosynth); stock 10 mM; Agonist: Recombinant Human Fractalkine (CX3CL1) (PeproTech); stock: 10 μM in standard Tyrode buffer/BSA 01%; stored at −20° C.
Cell line. The final clone for the hCX3CR1 assay was CHO ChAMPion/CX3CR1 K1.6. ChAMPion technology is based on the co-expression of a Ca^2+ sensitive photoprotein and of a cyclic nucleotide-gated (CNG) channel acting as a cAMP biosensor in a CHO-K1 cell line. CNG channels are non-selective ligand gated cation channels that can be opened by the direct interaction with either cAMP or cGMP, at the intracellular C-terminus site of the channel. Channel opening allows the flux of extracellular calcium into the cell cytoplasm and its transient elevation can be recorded by means of several different calcium indicators. In the chAMPion system, the CNG channel has been modified to display sensitivity to cAMP levels in the physiological range. In addition the calcium influx through the opened channel is immediately detected by the recording of the photoprotein-emitted flash type luminescence signal.
The chAMPion cell line system can monitor the activation of transfected Gαi-coupled receptors, which elicit changes in 3,‘5’-adenosine cyclic monophosphate (cAMP) levels, which in turn is responsible for CNG opening and consequent Ca^2+ influx.
Assay protocol. Experiments were performed in 384 MTP format. Cells were seeded at 10,000 cells/well in 25 μL/well complete growth medium without selection antibiotics in 384-well plates. Twenty-four hours later, cells were assayed for the response to various compounds using the Ca^2+ sensitive photo-protein stably expressed in the cells as readout.
The experiment was performed in a 384-well format according to the following procedure: • 24h after seeding, pre-incubate the cells at room temperature for 1 hour. • Then remove the culture medium. • Load cells with 20 μL/well of Ca^2+ free tyrode buffer+ceolenterazine 5 μM. • Incubate cell plates for 4 hours at RT. • 10 μl/well of 3× concentrated compounds in Ca^2+ free tyrode buffer+Forskolin 9 μM (final Forskolin concentration=3 μM) are applied to the cells (at 10 μl/s). Ten minutes later a second injection is performed: 10 μl/well of Ca^2+ free tyrode buffer+BSA 0.04% (final BSA concentration=0.01%). Twenty minutes later a third injection is performed: 20 μl/well of 10 mM Ca^2+ tyrode buffer (final Ca^2+ concentration was 3.3 mM) and luminescence is recorded for 90 seconds.
Data from FLIPRTETRA measurements are analyzed with the Genedata Screener© software.

hCX3CR1 [2] = molecular target: T1, hCX3CR1; assay: Ga16 assay, CX3CR1 agonism, Ca2+ sensitive photo-protein readout (FLIPRTETRA); parameters: expressed in transfected cells; stably expresses a Ca2+ sensitive photo-protein; settings: human CX3CR1 cell line
In short: (§1)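 Cells expressing human, mouse or rat CX3CR1 with a stably expressed Ca2+-sensitive photoprotein were loaded with 10 μM coelenterazine in tyrode buffer pH 7.4 for 3 h at room temperature. Agonist-mode luminescence kinetics were recorded for 90 s after compound injection on FLIPRTETRA. Dose-response runs were done in quadruplicate, with fractalkine as the reference agonist.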

rCX3CR1 = molecular target: T2, rCX3CR1 (Rattus norvegicus, UniProt P35411); assay: as above; settings: rat CX3CR1 cell line
T2 construct: expressed in transfected cells; stably expresses a Ca2+ sensitive photo-protein
T2 sequence (P35411 1-354): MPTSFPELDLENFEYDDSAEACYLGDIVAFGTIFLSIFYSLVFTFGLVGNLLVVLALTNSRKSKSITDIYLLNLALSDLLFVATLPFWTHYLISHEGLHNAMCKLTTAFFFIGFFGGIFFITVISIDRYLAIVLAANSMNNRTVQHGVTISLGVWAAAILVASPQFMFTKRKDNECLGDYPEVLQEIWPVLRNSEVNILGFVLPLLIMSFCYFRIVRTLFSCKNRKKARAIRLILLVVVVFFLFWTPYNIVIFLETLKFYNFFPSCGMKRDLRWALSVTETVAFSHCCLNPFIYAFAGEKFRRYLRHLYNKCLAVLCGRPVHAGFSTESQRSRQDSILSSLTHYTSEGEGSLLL
In short: as §1

mCX3CR1 = molecular target: T3, mCX3CR1 (Mus musculus, UniProt Q9Z0D9); assay: as above; settings: mouse CX3CR1 cell line
T3 construct: expressed in transfected cells; stably expresses a Ca2+ sensitive photo-protein
T3 sequence (Q9Z0D9 1-354): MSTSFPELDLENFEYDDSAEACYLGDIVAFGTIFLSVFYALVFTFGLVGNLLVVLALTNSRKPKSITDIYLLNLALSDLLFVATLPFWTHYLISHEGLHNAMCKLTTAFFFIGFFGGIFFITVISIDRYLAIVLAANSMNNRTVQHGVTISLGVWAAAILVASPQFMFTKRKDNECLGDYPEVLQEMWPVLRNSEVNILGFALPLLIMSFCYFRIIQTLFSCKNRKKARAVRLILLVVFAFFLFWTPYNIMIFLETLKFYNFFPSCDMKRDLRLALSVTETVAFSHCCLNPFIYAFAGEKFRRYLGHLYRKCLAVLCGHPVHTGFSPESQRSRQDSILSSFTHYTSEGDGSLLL
In short: as §1

Row | SMILES | EC50 (hCX3CR1 [1]) [µM] | EC50 (hCX3CR1 [2]) [µM] | EC50 (rCX3CR1) [µM] | EC50 (mCX3CR1) [µM]
1 | CCC(CC)(CNC(=O)c1cc2c(s1)CCCCCC2)CN1CCCC1 [Example 9, N-[2-ethyl-2-(pyrrolidin-1-ylmethyl)butyl]-4,5,6,7,8,9-hexahydrocycloocta[b]thiophene-2-carboxamide] | 4.1 | 11 | 14.9 | 11.8
2 | CN(C)CC1(CNC(=O)c2cc3c(s2)CCCCCC3)Cc2ccccc2C1 [Example 10, N-[[2-[(dimethylamino)methyl]-1,3-dihydroinden-2-yl]methyl]-4,5,6,7,8,9-hexahydrocycloocta[b]thiophene-2-carboxamide] | 12.2 | 20.5 | 18.8 | 19.4
3 | O=C(NCC1(CN2CCCC2)Cc2ccccc2C1)c1cc2c(s1)CCCCCC2 [Example 11, N-[[2-(pyrrolidin-1-ylmethyl)-1,3-dihydroinden-2-yl]methyl]-4,5,6,7,8,9-hexahydrocycloocta[b]thiophene-2-carboxamide] | 6.3 | 20.5 | 19.6 | 15.4
4 | CCN(CC)CC(C)(C)CNC(=O)c1cc2c(s1)CCCCCC2 [Example 16, N-[3-(diethylamino)-2,2-dimethylpropyl]-4,5,6,7,8,9-hexahydrocycloocta[b]thiophene-2-carboxamide] | 6.6 | 13.6 | 19.7 | 103
5 | O=C(NCC1(CN2CCCC2)CCOCC1)c1cc2c(s1)CCCCCC2 [Example 20, N-[[4-(pyrrolidin-1-ylmethyl)oxan-4-yl]methyl]-4,5,6,7,8,9-hexahydrocycloocta[b]thiophene-2-carboxamide] | 1.7 | 8.8 | 19.2 | 20.9
6 | CC(C)(CNC(=O)c1cc2c(s1)CCCCCCC2)CN1CCCC1 [Example 24, N-(2,2-dimethyl-3-pyrrolidin-1-ylpropyl)-5,6,7,8,9,10-hexahydro-4H-cyclonona[b]thiophene-2-carboxamide] | 10.6 | 24.6 | 59.9 | 50.9
7 | O=C(NCC1(CN2CCCC2)CCC1)c1cc2c(s1)CCCCCCC2 [Example 26, N-[[1-(pyrrolidin-1-ylmethyl)cyclobutyl]methyl]-5,6,7,8,9,10-hexahydro-4H-cyclonona[b]thiophene-2-carboxamide] | 4.3 | 27.3 | 46.7 | 58.1
8 | CN(C)CC1(CNC(=O)c2ccc3c(c2)CCCCCC3)CCCC1 [Example 33, N-[[1-[(dimethylamino)methyl]cyclopentyl]methyl]-5,6,7,8,9,10-hexahydrobenzo[8]annulene-3-carboxamide] | 4 | 17.4 | 22.7 | 44.4

Now from value to compound:

Row | EC50 (hCX3CR1 [1]) [µM] | EC50 (hCX3CR1 [2]) [µM] | EC50 (rCX3CR1) [µM] | EC50 (mCX3CR1) [µM] | SMILES
9 | 6.2 | 13.3 | 12.2 | 9.1 | CCN(CC)CC1(CNC(=O)c2cc3c(s2)CCCCCC3)CCCC1 [Example 12, N-[[1-(diethylaminomethyl)cyclopentyl]methyl]-4,5,6,7,8,9-hexahydrocycloocta[b]thiophene-2-carboxamide]
10 | 1.6 | 9.1 | 9.3 | 15.2 | O=C(NCC1(CN2CCC2)CCCC1)c1cc2c(s1)CCCCCC2 [Example 14, N-[[1-(azetidin-1-ylmethyl)cyclopentyl]methyl]-4,5,6,7,8,9-hexahydrocycloocta[b]thiophene-2-carboxamide]
11 | 1.3 | 11.8 | 15.7 | 18.2 | CN(CCO)CC1(CNC(=O)c2cc3c(s2)CCCCCC3)CCCC1 [Example 17, N-[[1-[[2-hydroxyethyl(methyl)amino]methyl]cyclopentyl]methyl]-4,5,6,7,8,9-hexahydrocycloocta[b]thiophene-2-carboxamide]
12 | 0.94 | 11 | 23.7 | 24.9 | O=C(NCC1(CN2CCCC2)CCCCC1)c1cc2c(s1)CCCCCC2 [Example 18, N-[[1-(pyrrolidin-1-ylmethyl)cyclohexyl]methyl]-4,5,6,7,8,9-hexahydrocycloocta[b]thiophene-2-carboxamide]
13 | 1.9 | 14.3 | 27.9 | 30.6 | CN(C)CC1(CNC(=O)c2cc3c(s2)CCCCCC3)CCOCC1 [Example 19, N-[[4-[(dimethylamino)methyl]oxan-4-yl]methyl]-4,5,6,7,8,9-hexahydrocycloocta[b]thiophene-2-carboxamide]
14 | 1.3 | 11.5 | 13.7 | 15.1 | CN(C)CC1(CNC(=O)c2cc3c(s2)CCCCCC3)CCCCC1 [Example 22, N-[[1-[(dimethylamino)methyl]cyclohexyl]methyl]-4,5,6,7,8,9-hexahydrocycloocta[b]thiophene-2-carboxamide]
15 | 4.8 | 18.7 | 47 | 46.3 | CN(CCO)CC1(CNC(=O)c2cc3c(s2)CCCCCCC3)CCCC1 [Example 29, N-[[1-[[2-hydroxyethyl(methyl)amino]methyl]cyclopentyl]methyl]-5,6,7,8,9,10-hexahydro-4H-cyclonona[b]thiophene-2-carboxamide]
16 | 36.5 | 13.7 | 12.9 | 46.9 | CN(CCO)CC1(CNC(=O)c2cc3c(s2)CCCCC3)CCCC1 [Example 34, N-[[1-[[2-hydroxyethyl(methyl)amino]methyl]cyclopentyl]methyl]-5,6,7,8-tetrahydro-4H-cyclohepta[b]thiophene-2-carboxamide]
